From ChEMBL document CHEMBL1201862, “PubChem BioAssay data set” (2004) come the findings set out here.

Test systems include BT-549; CAKI-1; DU-145; M14; MDA-MB-231; MDA-N; MOLT-4; Malme-3M; OVCAR-4; SF-268; SF-295; SK-MEL-5; SK-OV-3; SN12C; SNB-19; SNB-75; SR; UACC-257; UO-31.
Holding throughout (experiment): NCI anticancer screen, dose series, 48 h

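Each compound was tested at five concentrations against cells in 96-well plates for 48 hours. GI50 = concentration required for 50% inhibition of growth.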 Active and inactive are the calls of the source. Cut-off read from the data, not from the text of the source: active = GI50 up to about 1.1 µM and inactive = higher.

Take `CC(C)(C)COS(=O)OCC(C)(C)C`: the GI50 in the assay on BT-549, with CAKI-1, in the assay with DU-145, with M14, in the assay with MDA-MB-231 and in the assay on MDA-N was > 100 µM (inactive) in each case. Also, the GI50 in the assay on MOLT-4, in the assay with Malme-3M, with OVCAR-4, with SF-268, with SF-295 and in the assay on SK-MEL-5 was > 100 µM (inactive) throughout. The GI50 with SK-OV-3, with SN12C, with SNB-19, in the assay on SNB-75, in the assay with SR and in the assay on UACC-257 was > 100 µM (inactive) each time. Further, in the assay with UO-31, the GI50 was > 100 µM (inactive).

For the molecule `O=C(NC(=O)c1c(F)cccc1F)Nc1cccc(Oc2ncc(Cl)cn2)c1`, the GI50 was > 24.8 µM (inactive) with BT-549; 30 µM (inactive) with CAKI-1; > 100 µM (inactive) with DU-145; > 51.2 µM (inactive) in the assay with M14; > 71.6 µM (inactive) with MDA-MB-231; 1.56 µM (inactive) with MDA-N. The GI50 with MOLT-4 is > 80.5 µM (inactive); in the assay on Malme-3M, > 68.4 µM (inactive); in the assay on OVCAR-4 it was > 69 µM (inactive); in the assay with SF-268, 36.5 µM (inactive); in the assay on SF-295, 32.3 µM (inactive); with SK-MEL-5 it was > 100 µM (inactive). For the same molecule, the GI50 is 19.3 µM (inactive) in the assay on SK-OV-3; 45.1 µM (inactive) with SN12C; 45.5 µM (inactive) in the assay on SNB-19; 19.5 µM (inactive) in the assay on SNB-75; 6.1 µM (inactive) in the assay with SR; > 100 µM (inactive) in the assay with UACC-257. For the same molecule, the GI50 in the assay with UO-31 is > 100 µM (inactive).

Turning to `CCN(CC)c1ccc(/C=C/C(=O)c2cc(C(C)(C)C)c(O)c(C(C)(C)C)c2)cc1`, the GI50 in the assay on BT-549 is 8.24 µM (inactive); with CAKI-1 it was 5.14 µM (inactive); in the assay on DU-145 it was 29 µM (inactive); in the assay on M14, 21.2 µM (inactive); in the assay with MDA-MB-231 it was 9.2 µM (inactive); in the assay on MDA-N, 3.14 µM (inactive). For the same molecule, the GI50 in the assay on MOLT-4 is 4.49 µM (inactive); in the assay on Malme-3M, > 100 µM (inactive); in the assay on OVCAR-4, 6.76 µM (inactive); in the assay on SF-268, 7.45 µM (inactive); in the assay with SF-295, 2.6 µM (inactive); in the assay on SK-MEL-5, 16.3 µM (inactive). The GI50 was 28.2 µM (inactive) in the assay with SK-OV-3; 27.4 µM (inactive) with SN12C; 38 µM (inactive) with SNB-19; 4.9 µM (inactive) in the assay on SNB-75; 2.8 µM (inactive) with SR; 6.85 µM (inactive) with UACC-257. Moreover, the GI50 with UO-31 was 17.6 µM (inactive).

`COC(=O)[C@H]1[C@H](C(=O)OC)[C@@H](C)c2c(ccc3c2[nH]c2ccccc23)[C@@H]1C`: the GI50 was > 100 µM (inactive) in the assay on BT-549; 68.4 µM (inactive) with CAKI-1; 41.5 µM (inactive) with DU-145; 24.2 µM (inactive) in the assay on M14; 25.6 µM (inactive) with MDA-MB-231; 90.8 µM (inactive) with MDA-N. For the same molecule, the GI50 with MOLT-4 was 0.3 µM (active); in the assay on Malme-3M, 49.8 µM (inactive); with OVCAR-4, 38.9 µM (inactive); with SF-268, 48.9 µM (inactive); in the assay with SF-295, 18.6 µM (inactive); with SK-MEL-5, > 100 µM (inactive). Further, the GI50 in the assay on SK-OV-3 was 92.9 µM (inactive); in the assay on SN12C, 13.2 µM (inactive); in the assay with SNB-19 it was 56.4 µM (inactive); in the assay on SNB-75, 19.7 µM (inactive); with SR, 0.521 µM (active); with UACC-257, 19.4 µM (inactive). For the same molecule, the GI50 in the assay with UO-31 was > 100 µM (inactive).

Regarding `S=C(Nc1cccc(C2(N3CCCCC3)CCCCC2)c1)Nc1cccc(C2(N3CCCCC3)CCCCC2)c1`, the GI50 with BT-549 was 41.1 µM (inactive); with CAKI-1, 42 µM (inactive); in the assay with DU-145, 27.3 µM (inactive); with M14 it was 18.7 µM (inactive); with MDA-MB-231, 15.6 µM (inactive); with MDA-N, 17.6 µM (inactive). The GI50 in the assay on MOLT-4 was 13.5 µM (inactive); with Malme-3M it was 20.7 µM (inactive); in the assay with OVCAR-4 it was 35.6 µM (inactive); in the assay with SF-268, 36.8 µM (inactive); in the assay with SF-295 it was 37.8 µM (inactive); with SK-MEL-5 it was 17.7 µM (inactive). The GI50 in the assay with SK-OV-3 is > 100 µM (inactive); in the assay with SN12C it was 31.6 µM (inactive); with SNB-19, 36.6 µM (inactive); with SNB-75, 12.9 µM (inactive); in the assay with SR, 13.6 µM (inactive); in the assay with UACC-257, 18 µM (inactive). Moreover, the GI50 in the assay with UO-31 is 16.9 µM (inactive).

`CCOc1cc2oc(C)cc(=O)c2c(OC)c1/C=N/c1ccc(Cn2c(C)nc3ccccc32)cc1`: the GI50 with BT-549, in the assay on CAKI-1, in the assay on DU-145, in the assay with M14, in the assay on MDA-MB-231 and with MDA-N was > 100 µM (inactive) each time. For the same molecule, the GI50 in the assay on MOLT-4, in the assay on Malme-3M, with OVCAR-4, with SF-268, with SF-295 and with SK-MEL-5 was > 100 µM (inactive) throughout. Also, the GI50 in the assay with SK-OV-3, in the assay with SN12C, in the assay on SNB-19, in the assay on SNB-75, in the assay on SR and in the assay with UACC-257 was > 100 µM (inactive) each time. In addition, the GI50 in the assay with UO-31 is > 100 µM (inactive).

`Cc1cc(N(CCC#N)CCC#N)ccc1C(/N=N/c1ccc(Cl)cc1)=N\NC(=O)c1cc(Cl)ccc1O`: the GI50 in the assay on BT-549 was 36.7 µM (inactive); with CAKI-1 it was > 100 µM (inactive); with DU-145, > 100 µM (inactive); in the assay with M14, > 100 µM (inactive); with MDA-MB-231 it was 30.8 µM (inactive); with MDA-N it was > 100 µM (inactive). Moreover, the GI50 is 53.5 µM (inactive) with MOLT-4; 62.7 µM (inactive) in the assay with Malme-3M; 27.1 µM (inactive) with OVCAR-4; 27.7 µM (inactive) with SF-268; 22.8 µM (inactive) in the assay with SF-295; > 100 µM (inactive) in the assay on SK-MEL-5. Moreover, the GI50 is 34.8 µM (inactive) in the assay with SK-OV-3; 70.5 µM (inactive) with SN12C; 25.1 µM (inactive) in the assay on SNB-19; 30.1 µM (inactive) in the assay on SNB-75; 38.7 µM (inactive) in the assay on SR; 72.8 µM (inactive) in the assay with UACC-257. Moreover, the GI50 with UO-31 was 64.4 µM (inactive).
